Measurements as given in patent publication US20230255946A1 (Pure Tech LYT 100, Inc., priority 2020, published 2023).
“Also recorded” adds a separate entry of the source.

Columns and labels:
L929 cells [1] = assay: TGF-induced soluble fibronectin synthesis in L929 cells (ELISA); type: cell-based; conditions: 500 µM, in the absence and presence of TGF-β-induction
Excerpt: Fibronectin is another important component of fibrotic lungs as it is induced by TGF-β and functions both as a structural component of extra cellular matrix as well as well as a ligand for integrin receptors. Just like soluble collagen, binding of fibronectin to integrin receptors induces the proliferation of fibroblast and epithelial cells of the lungs.

[2] = Food Effect Study Part 2 (Cohort 5), single 500 mg dose fed vs fasted; type: in vivo
Procedure: The comparison will be based on Day 1, Day 2 and Day 3 PK plasma samples after the first dose of study drug on Day 1 under fast and fed conditions of Part 2.
Subjects will be admitted to the CRU on Day -1 and will fast overnight for at least 10 h.
Comparison of the PK parameters in the fed and fasted states will be performed, and analysis of PK by gender may be performed if the data allow.

L929 cells [3] = assay: TGF-induced collagen synthesis in L929 cells, 96-well plate format (SIRCOL); type: cell-based; conditions: 500 µM
Procedure: Five thousand L929 cells were plated in complete DMEN and incubated until confluency for 3 days. Medium was removed and complete DMEM containg Prolin (20 µg/ml) and ascorbic acid (10 µM) was added. […] Cells were further incubated for 72 hrs. Supernatant was removed, 0.5% gluteraldehyde was added for 30 min at RT, removed, washed 3X with ddwater, 0.5 M acetic acid was added for 30 min at RT, removed, washed with water, air dried and 100 µl SIRCOL dye was added for 5 h at RT. Dye was removed, plate was washed extensively under running water, air dried and 200 µl of 0.5 M NaOH was added, plates were shaken at RT for 1 h, and OD was determined at 600 nm.

L929 cells [4] = assay: TGF-induced soluble collagen synthesis in L929 cells (ELISA); type: cell-based; conditions: 500 µM
Procedure: Five thousand L929 cells were plated in complete DMEN and incubated until confluency for 3 days. Medium was removed and complete DMEM containing Prolin (20 µg/ml) and ascorbic acid (10 µM) was added. […] Cells were further incubated for 72 hrs. 200 µl supernatant of 96-well SIRCOL plate was placed onto ELISA plate and incubated O/N. Next day, supernatant was removed and 100 ul of 1%BSA in PBST was added and incubated for 2 h at RT, BSA was removed, plate was washed 3x with 200 µl of PBST, and anti-collagen type I a.b was added at 1:2000 dilution (prepared in %1 BSA in PBST), incubated at RT for 1 h, primary a.b was removed, plate was washed 3x with 200 µl PBST, and secondary anti-goat HRP was added at 1:2000 dilution, incubate at RT for 1 h, removed, plate was washed 3x with 200 µl PBST and 100 µl of TMB solution was added for color development for 15 min, then 100 µl of 2 N H2SO4 was added to stop the reaction and O.D of developed yellow color was determined at 450 nm.

[5] = system: mouse tail model of lymphedema; assay: Mouse tail model of lymphedema; type: in vivo; conditions: 400 mg/kg/day oral gavage once daily, by 5 weeks
[6] = MAD study, safety and tolerability (adverse events)
Excerpt: All participants in Part 1 and Part 2 will be monitored for safety (including assessment of chemistry, haematology and urinalysis parameters, electrocardiograms [ECGs], vital signs and adverse events [AEs]) and samples will be collected for assessment of PK at predefined time points pre and post-dose as delineated in the Schedule of Events.
Safety and tolerability will be assessed throughout Part 1, Part 2 and Part 3 of the study by monitoring AEs, physical examination, vital signs, 12-lead ECGs, clinical laboratory values (haematology panel, multiphasic chemistry panel and urinalysis), and review of concomitant treatments/medication use.

L929 cells [7] = assay: TGF-induced collagen synthesis in L929 cells, 6-wells (SIRCOL); type: cell-based; conditions: 500 µM
Procedure: 100,000 L929 cells were plated in complete DMEN and incubated until confluency for 3 days. Medium was removed and complete DMEM containg Prolin (20 µg/ml) and ascorbic acid (10 µM) was added. […] Cells were further incubated for 72 hrs. Supernatant was removed, cells were washed with cold PBS, 1 ml SIRCOL reagent was added onto the cells and cells were scraped off, samples were shaken for 5 h.at RT, centrifuged at 10.000 rpm for 5 min, supernatant was removed, pellet was dissolved in 0.5 M acetic acid to remove unbound dye, and re-centrifuged at 10.000 rpm for 5 min, supernatant was removed and final pelet was dissolved in 1 ml 0.5 M NaOH, shaken at RT for 5 h, 100 µl of resulted solution was placed in 96-well and O.D was determined at 600.

[8] = human, in vivo
Procedure: All Part 1 cohorts will be dosed every 12 hours with food for 5 days.
During the treatment period (Day 1 through Day 5), participants will be administered their assigned study medication BID, every 12 h ± 0.25 h (with approximately 240 mL of non-carbonated water), 30 minutes after the start of consumption of their standardised breakfast or dinner (12 h apart). A standardised lunch will be served ≥ 4 h post breakfast and ≥ 4 h prior to dinner. An evening snack will be served ≥ 3 h following evening study medication administration. No additional fluids will be allowed during the 1 h pre- and post-doses. On Day 6, subjects will replicate mealtimes as scheduled on Day 1-5.
In Part 1, blood samples (4 mL each) for PK will be collected for Cohorts 1, 2, 3, 4, and 6 at specified times (hours) at each as follows: • Day 1 and Day 5: 0 (pre-dose), 0.5, 1, 1.5, 2, 2.5, 3, 3.5, 4, 6, 8, 12 (pre-dose), 13, 14, 15, 16, 18 h • Day 2, Day 3 and Day 4: 0 (pre-morning-dose) and 12 h (pre-evening-dose) • Day 6: 12, 18, 24 and 36 h post-last dose • Day 7: 48 h (post-last dose)
Pharmacokinetics for Day 1 to 3 in Part 2 (fed state) will be compared to PK for Day 1 to Day 3 in Part 2 (fasted state). Plasma PK parameters (non-compartmental or compartmental analysis as appropriate) will include, but are not limited to: • Following single dose: Tmax, tlag, Cmax, AUC0-4, AUC0-last, t½, AUC0-inf, lambda z, %AUCext, CL/F, Vz/F, Cmax/D, AUC0-last/D, AUC0-inf/D and MRT (D is dose) • After repeated doses: Ctrough, Ctrough/D • Following repeated doses on last day: Tmax, Cmax, Cavg, tlag, t½, AUC0-4, AUC0-last, AUC0-inf, lambda z, %AUCext, CLss/F, Vzss/F, MRT, PTF, Rac(AUC), Rac(Cmax), Cmax/D, AUClast/D, AUC0-inf/D and Rac (accumulation ratio)
All cohorts (n=6 each) were dosed every 12 hours with food for 5 days at either 100, 250, 500, or 750 mg BID. […] Following processing, the samples were analyzed by HPLC on a Phenomenex Luna PFP(2), 3 µm, 50 x 2.0 mm column, and the eluates were monitored by an API4000 MS/MS detector in positive MRM mode. The data were acquired and processed by the data acquisition system Analyst® (Sciex).

[9] = human, in vivo, 48 h
Excerpt: Following screening, eligible healthy volunteer subjects were admitted to a single clinical study site and were randomized to 1 of 2 treatment sequences. […] In each period, a standardized breakfast was provided to subjects prior to administration of study drug (to compare the PK profiles in the clinically relevant fed state) and plasma samples were collected over a 48-hour period after dosing for evaluation of PK. Dosing between the 2 periods was separated by a minimum of 7 days. Subjects completed the study upon completion of the 48-hour post-dose assessments following dosing period 2.
All capsules were identical in size, shape, and external color.

L929 cells [10] = assay: Survival of L929 cells (MTT); type: cell-based; conditions: 500 µM, 72 hrs
Procedure: Five thousand L929 cells were plated in completed DMEN and incubated until confluency for 3 days. Medium was removed and complete DMEM containg Prolin (20 µg/ml) and ascorbic acid (10 uM) was added. […] 100 µL of medium was removed, 20 µL MTT solution was added for 4 hrs, then 100 µl of DMSO was added, and absorbance of developed dark pink color was determined at […].

NASH mice = assay: NASH mouse model (streptozotocin and high fat diet), liver histology; type: in vivo
Excerpt: Non-alcoholic steatohepatitis (NASH) is characterized by lobular inflammation, hepatocyte ballooning and degeneration progressing to liver fibrosis. […] In addition, nine non-NASH mice were fed with a normal diet and monitored.

[11] = male, Sprague Dawley, rat, in vivo, 28 days
Procedure: The protocol was amended to add additional TK male animals in Group 6 for Day 1 collection of TK samples at 875 mg/kg.
Blood samples were collected from 3 subsets of 3 animals/sex on Day 1 and Day 28 at predose, 0.25, 0.5, 1, 2, 4, 8 and 24 hours (hr) post-dose for groups 2 to 6 and from one subset of 3 animals/sex at 0.25 hr post-dose for the vehicle group (group 1). […] Non-compartmental analysis (NCA) of plasma concentration data was conducted using Phoenix® WinNonlin®, version 8.0.

[12] = 200 mg SD-559 (pirfenidone) BID, Huang et al.; in ng/mL; cited from earlier work

## [2H]C([2H])([2H])c1ccc(=O)n(-c2ccccc2)c1 [LYT-100, deupirfenidone]
L929 cells [1]
  soluble fibronectin levels: signficantly reduced
[2]; LYT-100 @500 mg single dose
  AUC, % Change Fed vs Fasted: -19%
  Cmax, % Change Fed vs Fasted: -23%
  Tmax, % Change Fed vs Fasted: +25%
[2]; single dose of 500 mg
  tolerability with or without food: no evidence of any tolerability concerns
L929 cells [3]
  total collagen level in the absence of TGF-β induction: signficantly inhibited or reduced
L929 cells [3]; TGF-β 5 ng/ml, 72 hrs
  TGF-β-induced total collagen levels: significanly inhibited or reduced
L929 cells [4]
  soluble collagen levels in the absence of TGF-β-induction: signficantly reduced
L929 cells [4]; TGF-β 5 ng/ml, 72 hrs
  TGF-β-induced soluble collagen levels: significantly inhibits
[5]
  swelling (tail volume) as compared to carboxymethylcellulose control: significantly reduced swelling
[6]
  abdominal discomfort, AE across all cohorts: 6.7%
  abdominal distension, AE across all cohorts: 10%
  headache, AE across all cohorts: 23.3%
  nausea, AE across all cohorts: 10%
[6]; 100 mg BID, N=6
  Abdominal Distension, incidence of TEAE: 0 n (%)
  Abdominal discomfort, incidence of TEAE: 0 n (%)
  Back pain, incidence of TEAE: 1 (16.7%) n (%)
  Dysmenorrhoea, incidence of TEAE: 0 n (%)
  Headache, incidence of TEAE: 1 (16.7%) n (%)
  Nausea, incidence of TEAE: 0 n (%)
  Peripheral swelling, incidence of TEAE: 0 n (%)
  Presyncope, incidence of TEAE: 0 n (%)
[6]; 100 mg up through 1000 mg BID over 5 days
  tolerability: well-tolerated
[6]; 250 mg BID, N=6
  Abdominal Distension, incidence of TEAE: 3 (50.0%) n (%)
  Abdominal discomfort, incidence of TEAE: 0 n (%)
  Back pain, incidence of TEAE: 0 n (%)
  Dysmenorrhoea, incidence of TEAE: 2 (33.3%) n (%)
  Headache, incidence of TEAE: 2 (33.3%) n (%)
  Nausea, incidence of TEAE: 2 (33.3%) n (%)
  Peripheral swelling, incidence of TEAE: 1 (16.7%) n (%)
  Presyncope, incidence of TEAE: 1 (16.7%) n (%)
[6]; 500 mg BID, N=6
  Abdominal Distension, incidence of TEAE: 0 n (%)
  Abdominal discomfort, incidence of TEAE: 0 n (%)
  Back pain, incidence of TEAE: 2 (33.3%) n (%)
  Dysmenorrhoea, incidence of TEAE: 0 n (%)
  Headache, incidence of TEAE: 2 (33.3%) n (%)
  Nausea, incidence of TEAE: 1 (16.7%) n (%)
  Peripheral swelling, incidence of TEAE: 0 n (%)
  Presyncope, incidence of TEAE: 0 n (%)
[6]; 750 mg BID, N=6
  Abdominal Distension, incidence of TEAE: 0 n (%)
  Abdominal discomfort, incidence of TEAE: 2 (33.3%) n (%)
  Back pain, incidence of TEAE: 0 n (%)
  Dysmenorrhoea, incidence of TEAE: 0 n (%)
  Headache, incidence of TEAE: 2 (33.3%) n (%)
  Nausea, incidence of TEAE: 1 (16.7%) n (%)
  Peripheral swelling, incidence of TEAE: 0 n (%)
  Presyncope, incidence of TEAE: 0 n (%)
[6]; 1000 mg BID, N=6
  Abdominal Distension, incidence of TEAE: 1 (16.7%) n (%)
  Abdominal discomfort, incidence of TEAE: 0 n (%)
  Back pain, incidence of TEAE: 0 n (%)
  Dysmenorrhoea, incidence of TEAE: 0 n (%)
  Headache, incidence of TEAE: 2 (33.3%) n (%)
  Nausea, incidence of TEAE: 0 n (%)
  Peripheral swelling, incidence of TEAE: 1 (16.7%) n (%)
  Presyncope, incidence of TEAE: 1 (16.7%) n (%)
[6]; 15 of 30 participants treated with LYT-100
  participants with TEAEs considered at least possibly treatment-related: 50.0%
[6]; 100 to 1000 mg BID, 5 days
  dose-limiting toxicities: No dose-limiting toxicities were observed
  maximum tolerated dose: No maximum tolerated dose was reached; also recorded: no maximally tolerated dose was reached
[6]; MAD study
  severity of adverse events at all doses: mild and transient
[6]; Overall LYT-100, N=30
  Abdominal Distension, incidence of TEAE: 4 (13.3%) n (%)
  Abdominal discomfort, incidence of TEAE: 2 (6.7%) n (%)
  Back pain, incidence of TEAE: 3 (10.0%) n (%)
  Dysmenorrhoea, incidence of TEAE: 2 (6.7%) n (%)
  Headache, incidence of TEAE: 9 (30.0%) n (%)
  Nausea, incidence of TEAE: 4 (13.3%) n (%)
  Peripheral swelling, incidence of TEAE: 2 (6.7%) n (%)
  Presyncope, incidence of TEAE: 2 (6.7%) n (%)
L929 cells [7]
  collagen synthesis in the absence of added TGF-β: significantly inhibits
L929 cells [7]; TGF-β 5 ng/ml, 72 hrs
  TGF-induced collagen synthesis: inhibits
[8]
  dose dependence of AUC96-108: linear dose proportionality
[9]
  tolerability of single doses: well tolerated
L929 cells [10]
  survival of L929 cells: does not affect survival
NASH mice; 30 mg/kg twice daily oral, 6-9 weeks of age, n=8, mean ± SD, p<0.01 vs Vehicle
  Fibrosis Area (%): 0.64 ± 0.31 %
NASH mice; Sirius-red stained liver sections
  fibrosis area compared to the vehicle group: significant reduction
NASH mice; score 0 = <5%, n=8
  number of animals with Steatosis score 0: 4
NASH mice; score 1 = 5-33%, n=8
  number of animals with Steatosis score 1: 3
NASH mice; score 1 = <2 foci/200x, n=8
  number of animals with Lobular Inflammation score 1: 5
NASH mice; score 2 = 2-4 foci/200x, n=8
  number of animals with Lobular Inflammation score 2: 3
NASH mice; score 2 = >33%-66%, n=8
  number of animals with Steatosis score 2: 1
NASH mice; score 2 = Many cells/prominent ballooning, n=8
  number of animals with Hepatocyte ballooning score 2: 8

## O=C(O)c1ccc(=O)n(-c2ccccc2)c1 [LYT-105, 5-carboxy-pirfenidone]
[11]
  exposure in rats relative to humans: ~7 fold
[2]; 5-carboxypirfenidone after LYT-100 500 mg
  change in Cmax, AUC, fed vs fasted: < 5%
[12]
  observed Cmax: 1476
[8]
  average ratio of metabolite to the parent (M/P) by AUC: 0.45
  dose dependence of AUC96-108: linear dose proportionality
